Results taken from patent US9784753B2, “Biological system to test in vitro if a substance is immune reactive” (priority 1996, dated 2017).

Experiments:
[1] = test system: frozen whole blood stimulated with LPS; assay: Modulation of LPS-stimulated IL-1 release in frozen whole blood; format: cell-based, human; conditions: depending on amount of substance administered; FIGS. 2 and 3
Procedure: Citrated blood from healthy donors was mixed with 10% dimethylsulfoxide (Merck, Darmstadt) immediately after it was drawn. Aliquots of 100 microliters were distributed in 2 milliliter reaction vessels (Eppendorf, Hamburg) and transferred to a −70° C. cold box in a commercial freezing system (a person, Nalgene). Thawing was done in a thermoshaker (Eppendorf, Hamburg) at 37° C. Immediately after thawing, 900 microliters of RPMI 1640 (Gibco, Eggenstein), warmed to 37° C., was added. Then the test substances, such as dilutions of a pyrogen, in this case, lipopolysaccharide of Salmonella abortus equi (Sigma, Deisenhofen) were added. After a four-hour incubation at 37° C., for example, in an incubator (Heraeus, Fellbach) with 5% carbon dioxide the incubated samples are shaken and centrifuged. Endogenous pyrogens, IL-1β in this case, are determined in the cell-free supernatant, after freezing, if desired. […] IL-1β was determined by ELISA (enzyme-linked immunosorbent assay) from antibodies from the company Pharmingen (Hamburg).

[2] = test system: cryopreserved blood from four healthy donors; assay: IL-1β release in thawed cryopreserved whole blood on contact with pyrogen (ELISA); format: cell-based, human; conditions: thawed deep-frozen citrated blood with 10% dimethylsulfoxide, diluted with RPMI 1640, four-hour incubation at 37° C., FIG. 1
Procedure: Citrated blood from healthy donors was mixed with 10% dimethylsulfoxide (Merck, Darmstadt) immediately after it was drawn. Aliquots of 100 microliters were distributed in 2 milliliter reaction vessels (Eppendorf, Hamburg) and transferred to a −70° C. cold box in a commercial freezing system (Mr. Freezy, Nalgene). Thawing was done in a thermoshaker (Eppendorf, Hamburg) at 37° C. Immediately after thawing, 900 microliters of RPMI 1640 (Gibco, Eggenstein), warmed to 37° C., was added. Then the test substances, such as dilutions of a pyrogen, in this case, lipopolysaccharide of Salmonella abortus equi (Sigma, Deisenhofen) were added. After a four-hour incubation at 37° C., for example, in an incubator (Heraeus, Fellbach) with 5% carbon dioxide the incubated samples are shaken and centrifuged. Endogenous pyrogens, IL-1β in this case, are determined in the cell-free supernatant, after freezing, if desired. […] IL-1β was determined by ELISA (enzyme-linked immunosorbent assay) from antibodies from the company Pharmingen (Hamburg).

Row | Molecule | release of IL-1 in frozen whole blood stimulated with LPS [1] | release of endogenous pyrogens (IL-1β) [2]
1 | Cn1cnc([N+](=O)[O-])c1Sc1ncnc2[nH]cnc12 [azathioprin] | dependence of release of IL-1 | 
2 | lipopolysaccharide of Salmonella abortus equi |  | release of endogenous pyrogens in the presence of minimal amounts of pyrogens
